# Bridge positions count the residues as written; N and C are the ends. Square brackets hold non-standard residues; d marks the D form. Peptide text beside a SMILES is read from it. NMeW = CN[C@@H](Cc1c[nH]c2ccccc12)C(=O)O
# Assays:
# [1] = species: Homo sapiens; test: Selectivity index, […] for displacement of [125I]-NDP-alpha-MSH from human MC1R […] for displacement of [125I]-NDP-alpha-MSH from human MC4R by competitive radioligand binding assay
# [2] = molecular target: Melanocortin receptor 5 (Homo sapiens, UniProt P33032); test: Displacement of [125I]-NDP-alpha-MSH from human MC5R expressed in HEK2936E cell membrane measured after 16-23 hrs by 1450 microbeta trilux scintillation proximity assay; assay type: cell membranes
# [3] = molecular target: T1, Melanocyte-stimulating hormone receptor (Homo sapiens, UniProt Q01726); test: Displacement of [125I]-NDP-alpha-MSH from human MC1R expressed in HEK2936E cell membrane measured after 16-23 hrs by 1450 microbeta trilux scintillation proximity assay; assay type: cell membranes
# [4] = species: Homo sapiens; test: Selectivity index, […] for displacement of [125I]-NDP-alpha-MSH from human MC1R […] for displacement of [125I]-NDP-alpha-MSH from human MC5R by competitive radioligand binding assay
# [5] = molecular target: T2, Melanocortin receptor 4 (Homo sapiens, UniProt P32245); test: Displacement of [125I]-NDP-alpha-MSH from human MC4R expressed in HEK2936E cell membrane measured after 16-23 hrs by 1450 microbeta trilux scintillation proximity assay; assay type: cell membranes
# [6] = molecular target: T2, Melanocortin receptor 4; test: Agonist activity at human melanocortin receptor 4 expressed in human T-REx-293 cells using high doxycycline assessed as stimulation of intracellular cAMP accumulation incubated for 45 mins by LANCE cAMP assay; assay type: functional
# [7] = molecular target: T1, Melanocyte-stimulating hormone receptor; test: Agonist activity at human melanocortin receptor 1 expressed in human T-Rex-293 cells assessed as stimulation of intracellular cAMP accumulation incubated for 45 mins by LANCE cAMP assay; assay type: functional, cell-based
# [8] = molecular target: T3, Melanocortin receptor 3 (Homo sapiens, UniProt P41968); test: Displacement of [125I]-NDP-alpha-MSH from human MC3R expressed in HEK2936E cell membrane measured after 16-23 hrs by 1450 microbeta trilux scintillation proximity assay; assay type: cell membranes
# [9] = molecular target: T3, Melanocortin receptor 3; test: Agonist activity at human melanocortin receptor 3 expressed in human T-REx-293 cells assessed as stimulation of intracellular cAMP accumulation incubated for 45 mins by LANCE cAMP assay; assay type: functional, cell-based
# [10] = species: Homo sapiens; test: Selectivity index, […] for displacement of [125I]-NDP-alpha-MSH from human MC1R […] for displacement of [125I]-NDP-alpha-MSH from human MC3R by competitive radioligand binding assay
# [11] = molecular target: T2, Melanocortin receptor 4; test: Agonist activity at human melanocortin receptor 4 expressed in human T-REx-293 cells using low doxycycline assessed as stimulation of intracellular cAMP accumulation incubated for 45 mins by LANCE cAMP assay; assay type: functional, cell-based
# T2 sequence (P32245 whole entry): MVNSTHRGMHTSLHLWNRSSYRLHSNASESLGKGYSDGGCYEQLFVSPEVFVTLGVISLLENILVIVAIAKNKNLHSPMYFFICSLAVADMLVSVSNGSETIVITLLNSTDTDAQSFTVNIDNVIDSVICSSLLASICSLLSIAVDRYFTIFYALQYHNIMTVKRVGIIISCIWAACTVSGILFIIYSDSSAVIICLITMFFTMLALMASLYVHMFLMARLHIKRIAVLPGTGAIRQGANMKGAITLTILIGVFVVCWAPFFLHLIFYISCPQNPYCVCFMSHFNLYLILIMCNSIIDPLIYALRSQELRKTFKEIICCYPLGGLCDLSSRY
# T3 sequence (P41968 whole entry): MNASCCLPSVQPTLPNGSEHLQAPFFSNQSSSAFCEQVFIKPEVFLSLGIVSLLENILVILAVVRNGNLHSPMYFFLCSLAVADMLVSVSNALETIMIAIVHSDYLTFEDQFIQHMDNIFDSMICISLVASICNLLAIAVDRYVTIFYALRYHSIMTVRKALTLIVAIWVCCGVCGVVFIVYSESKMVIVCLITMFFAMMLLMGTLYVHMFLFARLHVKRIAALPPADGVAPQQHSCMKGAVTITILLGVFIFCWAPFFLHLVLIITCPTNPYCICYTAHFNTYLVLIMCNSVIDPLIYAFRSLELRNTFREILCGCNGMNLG
# T1 sequence (Q01726 whole entry): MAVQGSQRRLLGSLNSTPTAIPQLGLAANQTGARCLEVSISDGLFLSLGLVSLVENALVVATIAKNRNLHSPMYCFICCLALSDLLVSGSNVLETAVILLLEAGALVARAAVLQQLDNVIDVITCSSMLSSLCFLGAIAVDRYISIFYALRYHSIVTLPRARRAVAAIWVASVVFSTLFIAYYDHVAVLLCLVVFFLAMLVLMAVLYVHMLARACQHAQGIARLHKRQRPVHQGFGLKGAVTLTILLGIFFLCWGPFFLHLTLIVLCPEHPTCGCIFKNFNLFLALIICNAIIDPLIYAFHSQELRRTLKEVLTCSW
# Sequence of Melanocortin receptor 5 (P33032 whole entry): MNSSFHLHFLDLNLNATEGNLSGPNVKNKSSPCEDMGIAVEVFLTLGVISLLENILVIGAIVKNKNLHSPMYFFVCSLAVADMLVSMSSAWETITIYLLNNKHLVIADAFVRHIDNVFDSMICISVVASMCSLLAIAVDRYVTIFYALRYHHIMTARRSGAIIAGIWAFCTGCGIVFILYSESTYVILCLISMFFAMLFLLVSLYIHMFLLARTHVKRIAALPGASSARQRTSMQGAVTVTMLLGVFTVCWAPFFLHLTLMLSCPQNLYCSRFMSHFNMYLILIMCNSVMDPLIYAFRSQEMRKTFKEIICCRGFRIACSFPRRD
SMILES,Ratio [1],IC50 [2],Ki [3],Ratio [4],Ki [5],EC50 [6],EC50 [7],Ki [8],EC50 [9],Ratio [10],EC50 [11]
CC[C@H](C)[C@@H]1NC(=O)[C@@H]2CCCN2C(=O)[C@H](Cc2c[nH]c3ccccc23)NC(=O)[C@H](CCCNC(=N)N)N(C)C(=O)[C@@H](Cc2ccccc2)NC(=O)[C@H](Cc2c[nH]cn2)NC(=O)[C@H](CC(=O)O)NC(=O)[C@@H]2CSSC[C@H](NC1=O)C(=O)N[C@@H](Cc1c[nH]cn1)C(=O)N[C@H](Cc1ccccc1)C(=O)N(C)[C@@H](CCCNC(=N)N)C(=O)N(C)[C@@H](Cc1c[nH]c3ccccc13)C(=O)N[C@@H](Cc1ccc(O)cc1)C(=O)N2,–,1230 nM,0.708 nM,–,355 nM,4.27 nM,0.0646 nM,891 nM,18.2 nM,–,85.1 nM
CC[C@H](C)[C@@H]1NC(=O)[C@@H]2CCCN2C(=O)[C@H](Cc2c[nH]c3ccccc23)N(C)C(=O)[C@H](CCCNC(=N)N)NC(=O)[C@@H](Cc2ccccc2)NC(=O)[C@H](Cc2cnc[nH]2)NC(=O)[C@H]([C@@H](C)O)NC(=O)[C@@H]2CSSC[C@H](NC1=O)C(=O)N[C@@H](Cc1ccccc1)C(=O)N1CCC[C@H]1C(=O)N[C@@H](CC(=O)O)C(=O)NCC(=O)N[C@@H](CCCNC(=N)N)C(=O)N2 (cyclo(CFPDGRCTH[dF]R[NMeW]PI); disulfide 1-7),–,1000 nM,339 nM,–,617 nM,3.09 nM,64.6 nM,> 1000 nM,282 nM,–,46.8 nM
CC[C@H](C)[C@@H]1NC(=O)[C@@H]2CCCN2C(=O)[C@H](Cc2c[nH]c3ccccc23)NC(=O)[C@H](CCCNC(=N)N)N(C)C(=O)[C@@H](Cc2ccccc2)NC(=O)[C@H](Cc2c[nH]cn2)NC(=O)[C@H]([C@@H](C)O)NC(=O)[C@@H]2CSSC[C@H](NC1=O)C(=O)N[C@@H](Cc1c[nH]cn1)C(=O)N[C@H](Cc1ccccc1)C(=O)N[C@@H](CCCNC(=N)N)C(=O)N[C@@H](C)C(=O)N[C@@H](CCCNC(=N)N)C(=O)N2,–,1780 nM,1.55 nM,–,50.1 nM,1.2 nM,0.427 nM,891 nM,16.2 nM,–,28.2 nM
CC[C@H](C)[C@@H]1NC(=O)[C@@H]2CCCN2C(=O)[C@H](Cc2c[nH]c3ccccc23)NC(=O)[C@H](CCCNC(=N)N)N(C)C(=O)[C@@H](Cc2ccccc2)NC(=O)[C@H](Cc2c[nH]cn2)NC(=O)[C@H](CC(=O)O)NC(=O)[C@@H]2CSSC[C@H](NC1=O)C(=O)N[C@@H](Cc1c[nH]cn1)C(=O)N[C@H](Cc1ccccc1)C(=O)N(C)[C@@H](CCCNC(=N)N)C(=O)N(C)[C@@H](Cc1c[nH]c3ccccc13)C(=O)N[C@@H](CCCNC(=N)N)C(=O)N2,–,2000 nM,0.794 nM,–,138 nM,1.29 nM,0.11 nM,479 nM,11.2 nM,–,22.9 nM

# Now those with a lower IC50 [2], led by results:
Ratio [1],IC50 [2],Ki [3],Ratio [4],Ki [5],EC50 [6],EC50 [7],Ki [8],EC50 [9],Ratio [10],EC50 [11],SMILES
–,676 nM,2.82 nM,–,10.7 nM,0.302 nM,0.794 nM,389 nM,6.61 nM,–,3.47 nM,CC[C@H](C)[C@@H]1NC(=O)[C@@H]2CCCN2C(=O)[C@H](Cc2c[nH]c3ccccc23)NC(=O)[C@H](CCCNC(=N)N)N(C)C(=O)[C@@H](Cc2ccccc2)NC(=O)[C@H](Cc2c[nH]cn2)NC(=O)[C@H]([C@@H](C)O)NC(=O)[C@@H]2CSSC[C@H](NC1=O)C(=O)N[C@@H](Cc1c[nH]cn1)C(=O)N[C@@H](C)C(=O)N[C@@H](CCCNC(=N)N)C(=O)N[C@@H](Cc1c[nH]c3ccccc13)C(=O)N[C@@H](CCCNC(=N)N)C(=O)N2
–,631 nM,11.7 nM,–,72.4 nM,3.16 nM,0.832 nM,708 nM,38.9 nM,–,52.5 nM,CC[C@H](C)[C@@H]1NC(=O)[C@@H]2CCCN2C(=O)[C@H](Cc2c[nH]c3ccccc23)NC(=O)[C@H](CCCNC(=N)N)N(C)C(=O)[C@@H](Cc2ccccc2)NC(=O)[C@H](Cc2c[nH]cn2)NC(=O)[C@H]([C@@H](C)O)NC(=O)[C@@H]2CSSC[C@H](NC1=O)C(=O)N[C@@H](Cc1c[nH]cn1)C(=O)N[C@H](Cc1ccccc1)C(=O)N[C@@H](CCCCN)C(=O)N[C@@H](Cc1c[nH]c3ccccc13)C(=O)N[C@@H](C)C(=O)N2
–,589 nM,15.1 nM,–,91.2 nM,2.19 nM,2.24 nM,1150 nM,56.2 nM,–,44.7 nM,CC[C@H](C)[C@@H]1NC(=O)[C@@H]2CCCN2C(=O)[C@H](Cc2c[nH]c3ccccc23)NC(=O)[C@H](CCCNC(=N)N)N(C)C(=O)[C@@H](Cc2ccccc2)NC(=O)[C@H](Cc2c[nH]cn2)NC(=O)[C@H]([C@@H](C)O)NC(=O)[C@@H]2CSSC[C@H](NC1=O)C(=O)N[C@@H](Cc1c[nH]cn1)C(=O)N[C@H](Cc1ccccc1)C(=O)N[C@@H](C)C(=O)N[C@@H](Cc1c[nH]c3ccccc13)C(=O)N[C@@H](CCCNC(=N)N)C(=O)N2
–,380 nM,0.148 nM,–,64.6 nM,2.75 nM,0.0832 nM,105 nM,3.55 nM,–,45.7 nM,CC[C@H](C)[C@@H]1NC(=O)[C@@H]2CCCN2C(=O)[C@H](Cc2c[nH]c3ccccc23)NC(=O)[C@H](CCCNC(=N)N)N(C)C(=O)[C@@H](Cc2ccccc2)NC(=O)[C@H](Cc2c[nH]cn2)NC(=O)[C@H](CCC(=O)O)NC(=O)[C@@H]2CSSC[C@H](NC1=O)C(=O)N[C@@H](Cc1c[nH]cn1)C(=O)N[C@H](Cc1ccccc1)C(=O)N(C)[C@@H](CCCNC(=N)N)C(=O)N(C)[C@@H](Cc1c[nH]c3ccccc13)C(=O)N[C@@H](CCCNC(=N)N)C(=O)N2
–,200 nM,0.912 nM,–,13.5 nM,0.178 nM,0.0562 nM,85.1 nM,1.45 nM,–,2.04 nM,CC[C@H](C)[C@@H]1NC(=O)[C@@H]2CCCN2C(=O)[C@H](Cc2c[nH]c3ccccc23)NC(=O)[C@H](CCCNC(=N)N)N(C)C(=O)[C@@H](Cc2ccccc2)NC(=O)[C@H](Cc2c[nH]cn2)NC(=O)[C@H]([C@@H](C)O)NC(=O)[C@@H]2CSSC[C@H](NC1=O)C(=O)N[C@@H](Cc1c[nH]cn1)C(=O)N[C@H](Cc1ccccc1)C(=O)N[C@@H](CCCNC(=N)N)C(=O)N[C@@H](Cc1c[nH]c3ccccc13)C(=O)N[C@@H](C)C(=O)N2
30,166 nM,0.0692 nM,3000,30.2 nM,0.977 nM,< 0.0501 nM,51.3 nM,1.23 nM,30,26.3 nM,CC[C@H](C)[C@@H]1NC(=O)[C@@H]2CCCN2C(=O)[C@H](Cc2c[nH]c3ccccc23)NC(=O)[C@H](CCCNC(=N)N)N(C)C(=O)[C@@H](Cc2ccccc2)NC(=O)[C@H](Cc2c[nH]cn2)NC(=O)[C@H]([C@@H](C)O)NC(=O)[C@@H]2CSSC[C@H](NC1=O)C(=O)N[C@@H](Cc1c[nH]cn1)C(=O)N[C@H](Cc1ccccc1)C(=O)N(C)[C@@H](CCCNC(=N)N)C(=O)N(C)[C@@H](Cc1c[nH]c3ccccc13)C(=O)N[C@@H](CCCNC(=N)N)C(=O)N2
–,89.1 nM,0.724 nM,–,8.13 nM,0.275 nM,> 0.0501 nM,50.1 nM,2.19 nM,–,2.69 nM,CC[C@H](C)[C@@H]1NC(=O)[C@@H]2CCCN2C(=O)[C@H](Cc2c[nH]c3ccccc23)NC(=O)[C@H](CCCNC(=N)N)N(C)C(=O)[C@@H](Cc2ccccc2)NC(=O)[C@H](Cc2c[nH]cn2)NC(=O)[C@H]([C@@H](C)O)NC(=O)[C@@H]2CSSC[C@H](NC1=O)C(=O)N[C@@H](Cc1c[nH]cn1)C(=O)N[C@H](Cc1ccccc1)C(=O)N[C@@H](CCCNC(=N)N)C(=O)N[C@@H](Cc1ccc3ccccc3c1)C(=O)N[C@@H](C)C(=O)N2

# Source: ChEMBL document CHEMBL5034014, “Melanocortin 1 Receptor Agonists Based on a Bivalent, Bicyclic Peptide Framework” (J Med Chem, 2021)
